Legend:
[1] = test system: model rats of middle cerebral artery thrombosis (MCAT); assay: Effects on neural symptoms of MCAT rats; assay type: in vivo, SD rats; design: key to Scores 6 hours / Scores 24 hours: 0/1 per test, summed (max 4); higher = more severe behavioral disorder; conditions: for Scores 6 hours: behavioral score 6 h after operation (full mark 4); for Scores 24 hours: behavioral score 24 h after operation (full mark 4)
Experimental: (1) Grouping and administration: […] Preventive administration was conducted by gavage one time per day for 3 days prior to the model being established. The model was established on day 4, and a dosage of one day was administered by gavage immediately after the model was established. Another dosage of one day was again administered by gavage 12 hours after the model was established. Equivalent amount of the vehicle was administered to the control group. […] Description of technique and early neuropathological consequences following middle cerebral artery occlusion. J Cereb Blood Flow Metab, 1981, 1: 53), and fixed in lateral decubitus position. A bowtype incision of 1.5 cm long was made at the midpoint between canthus and exterior auditory canal. Temporalis was broken and incised to expose temporal bone. […] The filter paper was removed after 30 min when the vascular became black. The localized tissue was washed with physiological brine, and sutured layer by layer. Then rats were placed back into the cages. By following the modified method of Bederson et al. […] (2) The animals were placed onto a smooth ground, and the resistance of contralateral shoulder to push was examined. “0” was recorded if the resistance of both shoulders were equal and strong; and “1” was recorded if the resistance of contralateral shoulder to push was decreased. […] (4) The tail of the rat was lifted 30 cm high away from the ground, and “1” was recorded if the animals ceaselessly circled contralaterally. “4” was full mark in accordance with the above-mentioned standard. The higher the score was, more severe the behavioral disorder of the animal was. 4. Results: The behavioral scores in each group were compared by student t test.

[2] = test system: model rats of middle cerebral artery thrombosis (MCAT); assay: Effects on cerebral infarct area of MCAT rats; assay type: in vivo, SD rats; conditions: for Cerebral infarct tissue weight/total brain weight (%): 24 h after operation, TTC staining; for Inhibition (%): cerebral infarct vs. model group
[3] = 50 mg/kg by gavage, vs. model group
[4] = 100 mg/kg by gavage, vs. model group
[5] = 200 mg/kg by gavage, vs. model group

Substance | Scores 6 hours ([1]; 50 mg/kg by gavage) | Scores 24 hours ([1]; 50 mg/kg by gavage) | % inhibition at hour 24 [1, 3] | Scores 6 hours ([1]; 100 mg/kg by gavage) | Scores 24 hours ([1]; 100 mg/kg by gavage) | % inhibition at hour 24 [1, 4] | Scores 6 hours ([1]; 200 mg/kg by gavage) | Scores 24 hours ([1]; 200 mg/kg by gavage) | % inhibition at hour 24 [1, 5] | Cerebral infarct tissue weight/total brain weight (%) ([2]; 50 mg/kg by gavage) | Inhibition (%) ([2]; 50 mg/kg by gavage) | Cerebral infarct tissue weight/total brain weight (%) ([2]; 100 mg/kg by gavage) | Inhibition (%) ([2]; 100 mg/kg by gavage) | Cerebral infarct tissue weight/total brain weight (%) ([2]; 200 mg/kg by gavage) | Inhibition (%) ([2]; 200 mg/kg by gavage) | alleviation on neural symptoms at 24 hours after the operation (in words) ([1]; 50 mg/kg, vs. model group, P<0.01 or P<0.05)
Calcium 2-(α-hydroxypentyl)benzoate | 3.45 ± 0.52 | 3.36 ± 0.50 | 7.69% | 3.55 ± 0.52 | 3.09 ± 0.70 | 17.16% | 3.45 ± 0.52 | 2.91 ± 0.54 | 21.98% | 6.39 ± 2.33% | 13.77% | 5.82 ± 1.90 % | 26.70% | 5.41 ± 1.77 % | 28.91% | –
N,N′-dibenzylethylenediamine 2-(α-hydroxypentyl)benzoate | 3.45 ± 0.52 | 3.09 ± 0.54 | 15.11% | 3.45 ± 0.52 | 2.91 ± 0.70 | 21.98% | 3.36 ± 0.67 | 2.82 ± 0.87 | 24.40% | 5.85 ± 2.32% | 21.05% | 5.50 ± 1.82 % | 30.73% | 5.09 ± 2.14 % | 33.11% | significantly alleviation

Source: patent US20070203233A1, “NOVEL 2-(alpha-N-PENTANONYL)BENZOATES, THEIR PREPARATION AND USE” (priority 2004, published 2007)
